Reference: publication PMC8607422, “Development of a novel TLR8 agonist for cancer immunotherapy” (Molecular Biomedicine, 2020)

Key:
[1] = tested on: EMT6 mouse breast cancer cells; assay: EMT6 mouse syngeneic breast cancer model; type: in vivo; settings: AZD-1775 30 mg/kg po bid
Method: All the animal experiments were conducted following Association for Assessment and Accreditation of Laboratory Animal Care (AAALAC)‘s guideline. The animal protocols were approved by the Institutional Animal Care and Use Committee (IACUC). Cell lines were purchased from credible vendors including ATCC. After tumor cell inoculation, the animals were checked daily for morbidity and mortality. At the time of routine monitoring, the animals were checked for any effects of tumor growth and treatment on the animals’ well-being such as mobility, food and water consumption, body weight gain/loss, matting and any other abnormalities. Clinical observations were recorded. Tumor volumes were measured twice a week in two dimensions using a caliper and the volume was expressed in mm^3 using the formula: V = 0.5 a × b^2 where a and b are the long and short diameters of the tumor, respectively. The procedures of dosing as well as tumor and body weight measurement were conducted in a laminar flow cabinet.
For EMT6 experiments, EMT6 mouse breast cancer cells were cultured in vitro as a monolayer culture in RPMI1640 medium supplemented with 10% fetal bovine serum and 1% penicillin/streptomycin at 37°C in an atmosphere of 5% CO2 in air. […] The cells growing in the exponential growth phase were harvested and counted for tumor inoculation. […]

hTLR7 = biological target: T1, hTLR7 (Homo sapiens, UniProt Q9NYK1); assay: HEK-Blue hTLR7 SEAP reporter agonist assay; type: cell-based; settings: positive control
T1 construct: host or cells: HEK-Blue hTLR7
T1 sequence (Q9NYK1 27-1049): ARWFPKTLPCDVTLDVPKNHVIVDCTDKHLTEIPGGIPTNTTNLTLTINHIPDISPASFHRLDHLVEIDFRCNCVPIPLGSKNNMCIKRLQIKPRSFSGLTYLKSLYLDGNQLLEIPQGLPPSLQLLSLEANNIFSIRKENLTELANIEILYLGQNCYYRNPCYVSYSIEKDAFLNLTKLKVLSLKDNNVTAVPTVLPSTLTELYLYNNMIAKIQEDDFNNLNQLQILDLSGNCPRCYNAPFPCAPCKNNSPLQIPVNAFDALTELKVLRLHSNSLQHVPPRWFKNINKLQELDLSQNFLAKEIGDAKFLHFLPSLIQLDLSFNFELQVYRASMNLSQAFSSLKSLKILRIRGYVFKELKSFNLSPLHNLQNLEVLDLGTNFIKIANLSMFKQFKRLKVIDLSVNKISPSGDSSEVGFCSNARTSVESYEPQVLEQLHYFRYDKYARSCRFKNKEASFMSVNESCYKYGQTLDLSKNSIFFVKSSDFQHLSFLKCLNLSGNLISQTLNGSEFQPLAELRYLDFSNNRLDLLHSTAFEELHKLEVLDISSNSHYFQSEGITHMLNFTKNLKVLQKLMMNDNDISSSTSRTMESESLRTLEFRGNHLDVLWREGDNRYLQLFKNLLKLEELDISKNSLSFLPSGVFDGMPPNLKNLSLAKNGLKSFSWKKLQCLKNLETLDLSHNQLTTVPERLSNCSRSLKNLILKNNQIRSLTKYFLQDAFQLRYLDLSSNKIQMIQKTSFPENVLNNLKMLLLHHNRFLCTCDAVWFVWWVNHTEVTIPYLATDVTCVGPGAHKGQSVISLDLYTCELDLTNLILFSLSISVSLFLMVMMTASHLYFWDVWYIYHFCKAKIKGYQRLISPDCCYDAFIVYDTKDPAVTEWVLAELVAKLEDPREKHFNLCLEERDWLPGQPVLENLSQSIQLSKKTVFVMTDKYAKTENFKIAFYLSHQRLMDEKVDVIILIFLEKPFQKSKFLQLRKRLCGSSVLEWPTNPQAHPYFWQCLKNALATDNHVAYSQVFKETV
Description: HEK-Blue™ hTLR4, 7, 8 and 9 cell lines were purchased from InvivoGen (Hong Kong). The cells express the human TLR gene and NF-κB/AP-1-inducible SEAP (secreted embryonic alkaline phosphatase) reporter gene. SEAP levels produced upon TLR stimulation can be determined by QUANTI-Blue™. In the cell-based assay, the main reagents used were QUANTI-Blue™ (InvivoGen) and ATPlite 1 Step (Perkin Elmer). The main instruments used were the microplate reader SpectraMax 340PC (Molecular Device) and Envision (Perkin Elmer). Motolimod and DN052 were synthesized in house. […] The compounds were in 10 mM stock solution in DMSO and stored at − 20°C. The compounds were serially diluted in the concentration range from 0.5 nM to 15 μM (up to 50 μM in the hTLR4, hTLR7 and hTLR9 assays) and added to 96-well plates. DMSO was used as the negative control. LPS-EK, R848, motolimod and ODN2006 were used as the positive control for TLR4, 7, 8 and 9, respectively. The cells were cultured and treated with the compounds at 37°C, 5%CO2 for 24 h. […] After 1.5 h of incubation, the optical density was measured using the spectrophotometer at 650 nm in the microplate reader of SpectraMax 340PC. The cell viability of each well was determined using ATPlite 1 Step following the manufacturer’s instruction. The luminescence signal in each well of plates was measured in the microplate reader of Envision.

activity of positive control in TLR7 assay (hTLR7)	SMILES	response of EMT6 model to single agent [1]
	C=CCn1c(=O)c2cnc(Nc3ccc(N4CCN(C)CC4)cc3)nc2n1-c1cccc(C(C)(C)O)n1 [AZD-1775]	largely resistant
active	CCOCc1nc2c(N)nc3ccccc3c2n1CC(C)(C)O [R848]	
